Data from patent publication US20220289753A1, “SHP2 INHIBITORS” (IRBM S.P.A., priority 2019, published 2022).
pIC50: −log10 of the molar value.

Molecular target: T1, SHP-2 enzyme (Met1-Leu525) (Homo sapiens, UniProt Q06124)
T1 construct: synthetized by Origene, Met1-Leu525, cat #TP750155; purchased Origene TP750155
T1 sequence (Q06124 1-525): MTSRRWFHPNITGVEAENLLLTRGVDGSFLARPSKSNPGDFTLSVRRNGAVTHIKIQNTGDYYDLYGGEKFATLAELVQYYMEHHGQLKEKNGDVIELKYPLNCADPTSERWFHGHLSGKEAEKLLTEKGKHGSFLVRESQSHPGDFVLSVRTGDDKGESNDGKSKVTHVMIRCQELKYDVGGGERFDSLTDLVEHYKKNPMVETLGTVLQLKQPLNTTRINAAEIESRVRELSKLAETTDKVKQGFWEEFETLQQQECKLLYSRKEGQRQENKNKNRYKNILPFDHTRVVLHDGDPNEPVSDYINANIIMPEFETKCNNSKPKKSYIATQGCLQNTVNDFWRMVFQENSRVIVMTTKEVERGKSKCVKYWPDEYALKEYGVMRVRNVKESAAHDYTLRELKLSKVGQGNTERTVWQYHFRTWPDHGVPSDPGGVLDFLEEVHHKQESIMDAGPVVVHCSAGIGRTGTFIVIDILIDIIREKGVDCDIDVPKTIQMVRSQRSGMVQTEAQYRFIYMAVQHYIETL
Assay: SHP2 inhibition enzymatic assay (DiFMUP substrate, IRS1 peptide activation)
Type: biochemical
Details: SHP2 wt; activated by 500 nM IRS1 peptide; 75 μM DiFMUP substrate
How it was run: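 SHP-2 (Met1-Leu525, 0.5 nM final) preincubated 30 min with compounds and IRS1 activating peptide in HEPES pH 7.2 buffer with NaCl, KCl, EDTA, tween-20, 5 mM DTT. DiFMUP then added for 30 min at room temperature and fluorescence read. IC50 from four-parameter logistic fit of % inhibition.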

| pIC50 | SMILES |
| --- | --- |
| > 6.30 | CC1(N)CCN(c2nc3nc(Sc4cccc5ccncc45)cnc3[nH]2)CC1 [Example 92, 1-(5-(isoquinolin-8-ylthio)-1H-imidazo[4,5-b]pyrazin-2-yl)-4-methylpiperidin-4-amine] |
| 5.52 to 6.30 | CC1(N)CCN(c2nc3nc(Sc4cccc(S(F)(F)(F)(F)F)c4)cnc3[nH]2)CC1 [Example 93, 4-methyl-1-(5-((3-(pentafluoro-l6-sulfaneyl)phenyl)thio)-1H-imidazo[4,5-b]pyrazin-2-yl)piperidin-4-amine] |
| > 6.30 | CC1(N)CCN(c2nc3nc(Sc4cccc(C(=O)O)c4)cnc3[nH]2)CC1 [Example 94, 3-((2-(4-amino-4-methylpiperidin-1-yl)-1H-imidazo[4,5-b]pyrazin-5-yl)thio)benzoic acid] |
| > 6.30 | CC1(N)CCN(c2nc3nc(Sc4ccc(C(=O)O)cc4)cnc3[nH]2)CC1 [Example 95, 4-((2-(4-amino-4-methylpiperidin-1-yl)-1H-imidazo[4,5-b]pyrazin-5-yl)thio)benzoic acid] |
| 5.52 to 6.30 | CC1(N)CCN(c2nc3nc(Sc4ccnc5c(C(F)(F)F)cccc45)cnc3[nH]2)CC1 [Example 97] |
| > 6.30 | CC1(N)CCN(c2nc3nc(Sc4ccccc4Cl)cnc3[nH]2)CC1 [Example 98, 1-(5-((2-chlorophenyl)thio)-1H-imidazo[4,5-b]pyrazin-2-yl)-4-methylpiperidin-4-amine] |
| > 6.30 | CC1(N)CCN(c2nc3nc(Sc4ccc(C(=O)O)cc4Cl)cnc3[nH]2)CC1 [Example 99, 4-((2-(4-amino-4-methylpiperidin-1-yl)-1H-imidazo[4,5-b]pyrazin-5-yl)thio)-3-chlorobenzoic acid] |
| 5.52 to 6.30 | CC1(N)CCN(c2nc3nc(Sc4cccc5ncncc45)cnc3[nH]2)CC1 [Example 100, 4-methyl-1-(5-(quinazolin-5-ylthio)-1H-imidazo[4,5-b]pyrazin-2-yl)piperidin-4-amine] |
| < 5.52 | CC1(N)CCN(c2nc3nc(Sc4ncnc5ccccc45)cnc3[nH]2)CC1 [Example 101, 4-methyl-1-(5-(quinazolin-4-ylthio)-1H-imidazo[4,5-b]pyrazin-2-yl)piperidin-4-amine] |
| < 5.52 | CC1(N)CCN(c2nc3nc(Sc4ccccc4-c4nccs4)cnc3[nH]2)CC1 [Example 102, 4-methyl-1-(5-((2-(thiazol-2-yl)phenyl)thio)-1H-imidazo[4,5-b]pyrazin-2-yl)piperidin-4-amine] |
| > 6.30 | CC1(N)CCN(c2nc3nc(Sc4cccc(CC(=O)O)c4)cnc3[nH]2)CC1 [Example 103, 2-(3-((2-(4-amino-4-methylpiperidin-1-yl)-1H-imidazo[4,5-b]pyrazin-5-yl)thio)phenyl)acetic acid] |
| < 5.52 | CC1(N)CCN(c2nc3nc(Sc4ccnc5ccnn45)cnc3[nH]2)CC1 [Example 104, 4-methyl-1-(5-(pyrazolo[1,5-a]pyrimidin-7-ylthio)-1H-imidazo[4,5-b]pyrazin-2-yl)piperidin-4-amine] |
| 5.52 to 6.30 | CC1(N)CCN(c2nc3nc(Sc4ccnc5ncccc45)cnc3[nH]2)CC1 [Example 105, 1-(5-((1,8-naphthyridin-4-yl)thio)-1H-imidazo[4,5-b]pyrazin-2-yl)-4-methylpiperidin-4-amine] |
| < 5.52 | Cc1cc(Sc2cnc3[nH]c(N4CCC(C)(N)CC4)nc3n2)c2ccccc2n1 [Example 106, 4-methyl-1-(5-((2-methylquinolin-4-yl)thio)-1H-imidazo[4,5-b]pyrazin-2-yl)piperidin-4-amine] |
| < 5.52 | Nc1cnc2c(c1)CN(c1nc3nc(Sc4cccnc4C(F)(F)F)cnc3[nH]1)CC2 [Example 108, 6-(5-((2-(trifluoromethyl)pyridin-3-yl)thio)-1H-imidazo[4,5-b]pyrazin-2-yl)-5,6,7,8-tetrahydro-1,6-naphthyridin-3-amine] |
| < 5.52 | NC1CCC2OC1CC2Nc1nc2nc(Sc3cccnc3C(F)(F)F)cnc2[nH]1 (stereo not shown) [Example 109, N6-(5-((2-(trifluoromethyl)pyridin-3-yl)thio)-1H-imidazo[4,5-b]pyrazin-2-yl)-8-oxabicyclo[3.2.1]octane-2,6-diamine] |
